Experimental data: PMC6853232, “Discovery and evaluation of novel synthetic 5-alkyl-4-oxo-4,5-dihydro-[1,2,4]triazolo[4,3-a]quinoxaline-1-carbox-amide derivatives as anti-inflammatory agents” (Journal of Enzyme Inhibition and Medicinal Chemistry, 2019)
Where “and” joins values, the source holds several entries; their conditions need not be identical. Identical values can stand only once. Marks after values point to notes of the source that are not given here.

Key:
[1] = test system: LPS-induced NO production in RAW264.7 macrophages; assay: Inhibition of LPS-induced NO production (Griess); type: cell-based, mouse; details: 10 µM
Method: The RAW 264.7 mouse macrophage cell line was obtained from the China Cell Line Bank (Beijing, China). Cells were cultured in complete medium (DMEM supplemented with 10% heat-inactivated FBS, 3 mM glutamine and antibiotics (100 U/mL penicillin and 100 U/mL streptomycin)) at 37 °C in a humidified incubator containing 5% CO2 and 95% air. Cells were treated with various concentrations of synthesised compounds for 30 min followed by stimulation with LPS ([…]).
Nitrite, a stable product of nitric oxide, was used to assess NO production. To study the effects of the isolated compounds on NO production, RAW264.7 cells were plated at 1 × 10^5 cells/well in a 96-well microplate and incubated overnight. The cells were pre-treated with various concentrations of the test compounds (3, 7.5, 10, 15, 30 or 100 µM) and further co-cultured with 1 µg/mL LPS for 24 h. Un-pre-treated and un-stimulated RAW 264.7 cells were conducted as the blank control group. At different time points, the supernatant (50 µL) was assayed with NO assay kit. The culture supernatant (50 µL) was mixed with an equal volume of the Griess reagent (1% sulphanilamide, 0.1% N-[1-naphthy] ethylenediamine dihydrochloride) and NO production were determined at 540 nm with an ELISAplate reader.

[2] = MTT assay for cell viability; type: cell-based, mouse; details: mouse, RAW264.7 macrophage cells; 30 μM, 24 h, RAW264.7 cells
Method: (§1) The RAW 264.7 mouse macrophage cell line was obtained from the China Cell Line Bank (Beijing, China). Cells were cultured in complete medium (DMEM supplemented with 10% heat-inactivated FBS, 3 mM glutamine and antibiotics (100 U/mL penicillin and 100 U/mL streptomycin)) at 37 °C in a humidified incubator containing 5% CO2 and 95% air. […]
(§2) Cell viability studies induced by synthesised compounds were evaluated by 3-(4,5-dimethylthiazol-2-yl)-2,5-diphenyltetrazolium bromide (MTT) assay. RAW264.7 macrophages were seeded in 96-well plates at a density of 5 × 10^5 cells/mL in complete medium and incubated for 24 h (100 µL/well). Then the cells were treated with different concentrations of synthesised compounds for 24 h. 150 µL MTT (5 g/L in PBS) was added to each well and the cells were further incubated for 4 h. The supernatant was removed and the cells were lysed with 150 µL/well DMSO. The optical density was measured at 570 nm on a microplate reader (Thermo Scientific, MA, USA).

[3] = test system: carrageenan-induced paw oedema; assay: Carrageenan-induced paw oedema model; type: in vivo, rats; details: 25 mg/kg p.o., n = 4
Text: The animal procedures were in strict accordance with the National Institutes of Healthy Guidelines for the Care and Use of Laboratory Animals (NIH Publication No. 85-23, revised 1996) and were approved by the Institutional Animal Care and Utilisation Committee of Yanbian University. Male albino rats weighing 280–300 gwere obtained from Animal Department of Yanbian University . They were kept in the animal house under standard condition of light and temperature with free access to food and water. The animals were randomly divided into five groups (control, D1, 6p, ibuprofen and celecoxib group) The groups with D1, 6p, ibuprofen and celecoxib were administered oral administration (p.o.) 25 mg/kg in a vehicle of 0.5% methylcellulose, respectively. The negative control group was treated with the same vehicle (0.5% methylcellulose). A solution of carrageenan (0.1 ml, 1.0% w/v in 0.9% of normal saline) was injected into the subplanter region of the left hind paw under light ether anaesthesia 1 h after oral administration (p.o.) of the test compound (at a dose level of 25 mg/kg body weight). The paw volume was measured at hourly interval for 5 h (0, 1, 3 and 5 h) and the percent inhibition of oedema was calculated using formula: %Inhibition=(Vt−Vo)control−(Vt−Vo)tested compound /(Vt−Vo)control×100 where, • Vo = volume of oedema at zero time interval. • Vt = volume of oedema at specific time interval.

[4] = test system: gastric mucosa (stomach lesions); assay: Ulcerogenic effect; type: in vivo; details: 25 mg/kg p.o. once a day for three days, rats
Method: The lead compound D1 and the newly synthesised compound 6p were subjected to in vivo testing to measure their ulcerogenic effect in comparison to celecoxib and ibuprofen. Male albino rats (220–250 g) divided into 5 groups (control, D1, 6p, ibuprofen and celecoxib group) of five rats each. The groups with D1, 6p, ibuprofen, and celecoxib were administered oral administration (p.o.) 25 mg/kg in a vehicle of 0.5% methylcellulose, respectively. The negative control group was treated with the same vehicle (0.5% methylcellulose). All groups were orally administered once a day for three consecutive days. Animals were sacrificed by diethyl ether 6 h after the last dose and the stomach was removed. An opening at the greater curvature was made and the stomach was cleaned by washing with cold saline and inspected with a three-time magnifying lens for any evidence of hyperaemia, haemorrhage, definite haemorrhagic erosion, or ulcer. An arbitrary scale was used to calculate the ulcer index which indicates the severity of the stomach lesions The % ulceration for each group was calculated as follows: % Ulceration = Number of animals bearing ulcer in a group/Total number of animals in the same group ×100.

RAW264.7 cells = assay: MTT assay for cell viability; type: cell-based, mouse; details: LPS 1 μg/mL
Method: as §1, §2

| Molecule | melting point [°C] | anti-inflammatory activity (NO) within 5-alkyl derivatives 6a–6f ([1]; SAR ranking) | viability at 24 h, 30 µM [2] [%] | % of oedema inhibition (% mean ± SD) ([3]; 1 h) [%] | % of oedema inhibition (% mean ± SD) ([3]; 3 h, 25 mg/kg) | % of oedema inhibition (% mean ± SD) ([3]; 5 h) [%] | % ulceration [4] [%] | inhibition at 10 µM ([1]; Mus musculus, RAW264.7, LPS 1 µg/mL, 24 h, read-out: NO inhibitory activity (% inhibition)) [%] | Cell viability (%) (RAW264.7 cells) |
| --- | --- | --- | --- | --- | --- | --- | --- | --- | --- |
| CCCCCCCCn1c(=O)c2nnc(C(N)=O)n2c2ccccc21 [6e, 5-octyl-4-oxo-4,5-dihydro-[1,2, 4]triazolo[4,3-a]quinoxaline-1-carboxamide] | 230 to 232 | the most active | 99.5 ± 2.3 |  |  |  |  |  |  |
| Cc1cccc(Oc2nn3c(C(N)=O)nnc3c3ccccc23)c1 [D1] |  |  | 96.3 ± 1.72 | 38.26 ± 2.82 | 42.81% and 42.81 ± 2.11% | 28.71 ± 2.92 | 20 | 10.3 |  |
| lipopolysaccharide [LPS, reference compound] |  |  |  |  |  |  |  |  | 98.60 ± 2.12^a % |
